Test results taken from patent US10501411B2, “Substituted benzamides” (Hoffmann-La Roche Inc., priority 2009, dated 2019).

Assays:
rat TAAR1 = rat TAAR1 (Rattus norvegicus (Rat), UniProt Q923Y9); experiment: Radioligand binding assay on rat TAAR1; conditions: for Ki: rat TAAR1, HEK-293 membranes, second value of the mouse/rat pair
Experimental: (§1) Construction of TAAR Expression Plasmids and Stably Transfected Cell Lines
(§2) For the construction of expression plasmids the coding sequences of human, rat and mouse TAAR 1 were amplified from genomic DNA essentially as described by Lindemann et al.. The Expand High Fidelity PCR System (Roche Diagnostics) was used with 1.5 mM Mg^2+ and purified PCR products were cloned into pCR2.1-TOPO cloning vector (Invitrogen) following the instructions of the manufacturer. PCR products were subcloned into the pIRESneo2 vector (BD Clontech, Palo Alto, Calif.), and expression vectors were sequence verified before introduction in cell lines.
(§3) HEK293 cells (ATCC #CRL-1573) were cultured essentially as described by Lindemann et al. (2005). For the generation of stably transfected cell lines HEK293 cells were transfected with the pIRESneo2 expression plasmids containing the TAAR coding sequences (described above) with Lipofectamine 2000 (Invitrogen) according to the instructions of the manufacturer, and 24 hrs post transfection the culture medium was supplemented with 1 mg/ml G418 (Sigma, Buchs, Switzerland). After a culture period of about 10 d clones were isolated, expanded and tested for responsiveness to trace amines (all compounds purchased from Sigma) with the cAMP Biotrak Enzyme immunoassay (EIA) System (Amersham) following the non-acetylation EIA procedure provided by the manufacturer.
Radioligand Binding Assay on Rat TAAR1
(§4) Membrane Preparation and Radioligand Binding.
HEK-293 cells stably expressing rat TAAR1 were maintained at 37° C. and 5% CO2 in DMEM high glucose medium, containing fetal calf serum (10%, heat inactivated for 30 min at 56° C.), penicillin/streptomycin (1%), and 375 μg/ml geneticin (Gibco). Cells were released from culture flasks using trypsin/EDTA, harvested, washed twice with ice-cold PBS (without Ca^2+ and Mg^2+), pelleted at 1,000 rpm for 5 min at 4° C., frozen and stored at −80° C. Frozen pellets were suspended in 20 ml HEPES-NaOH (20 mM, pH 7.4) containing 10 mM EDTA and homogenized with a Polytron (PT 6000, Kinematica) at 14,000 rpm for 20 s. The homogenate was centrifuged at 48,000×g for 30 min at 4° C. Subsequently, the supernatant was removed and discarded, and the pellet resuspended in 20 ml HEPES-NaOH (20 mM, pH 7.4) containing 0.1 mM EDTA using the Polytron (20 s at 14,000 rpm). This procedure was repeated and the final pellet resuspended in HEPES-NaOH containing 0.1 mM EDTA and homogenized using the Polytron. […] With each new membrane batch the dissociation constant (Kd) was determined via a saturation curve. […] After addition of 45 μl of Microscint 40 (PerkinElmer) the Unifilter-96 plate was sealed and after 1 hr the ratioactivity counted using a TopCount Microplate Scintillation Counter (Packard Instrument Company).

mouse TAAR1 = mouse TAAR1 (Mus musculus (Mouse), UniProt Q923Y8); experiment: Radioligand binding assay on mouse TAAR1; conditions: for Ki: mouse TAAR1, HEK-293 membranes, first value of the mouse/rat pair
Experimental: as §1, §2, §3
Radioligand Binding Assay on Mouse TAAR1
as §4
HEK-293 cells stably expressing mouse TAAR1 were maintained at 37° C. and 5% CO2 in DMEM high glucose medium, containing fetal calf serum (10%, heat inactivated for 30 min at 56° C.), penicillin/streptomycin (1%), and 375 μg/ml geneticin (Gibco). […] With each new membrane batch the dissociation constant (Kd) was determined via a saturation curve. […] After addition of 45 μl of Microscint 40 (PerkinElmer) the Unifilter-96 plate was sealed and after 1 hr the ratioactivity counted using a TopCount Microplate Scintillation Counter (Packard Instrument Company).

Sequence of mouse TAAR1 (Q923Y8 whole entry): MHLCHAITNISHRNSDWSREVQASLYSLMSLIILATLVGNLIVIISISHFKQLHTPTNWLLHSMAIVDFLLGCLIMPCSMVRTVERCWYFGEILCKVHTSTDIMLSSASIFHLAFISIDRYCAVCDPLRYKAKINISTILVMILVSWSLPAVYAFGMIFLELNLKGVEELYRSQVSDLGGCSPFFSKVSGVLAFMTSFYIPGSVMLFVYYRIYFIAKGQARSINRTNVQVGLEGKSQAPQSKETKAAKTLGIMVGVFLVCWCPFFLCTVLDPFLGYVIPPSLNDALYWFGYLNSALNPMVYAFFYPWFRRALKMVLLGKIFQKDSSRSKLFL
Sequence of rat TAAR1 (Q923Y9 whole entry): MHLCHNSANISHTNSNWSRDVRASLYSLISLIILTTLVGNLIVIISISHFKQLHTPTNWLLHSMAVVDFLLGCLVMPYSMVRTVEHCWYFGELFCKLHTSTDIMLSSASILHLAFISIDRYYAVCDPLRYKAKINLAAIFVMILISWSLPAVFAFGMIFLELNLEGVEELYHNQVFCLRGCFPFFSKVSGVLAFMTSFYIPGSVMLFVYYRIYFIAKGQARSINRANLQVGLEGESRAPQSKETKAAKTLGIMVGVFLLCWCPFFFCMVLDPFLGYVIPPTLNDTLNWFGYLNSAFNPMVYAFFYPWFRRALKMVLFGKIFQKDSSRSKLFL

| Ki (rat TAAR1) [µM] | Kd (mouse TAAR1; mouse TAAR1 membranes, saturation curve, read-out: dissociation constant (Kd) of the radioligand) [nM] | Kd (rat TAAR1; rat TAAR1 membranes, saturation curve, read-out: dissociation constant (Kd) of the radioligand) [nM] | SMILES | Ki (mouse TAAR1) [µM] |
| --- | --- | --- | --- | --- |
| 0.522 |  |  | CC1(c2ccc(NC(=O)c3ccc(Cl)cc3)cc2)CCN(Cc2ccccc2)C1 (racemic) [Example 40, (RS)—N-[4-(1-Benzyl-3-methyl-pyrrolidin-3-yl)-phenyl]-4-chloro-benzamide] |  |
| 0.0219 |  |  | CC(CC(F)(F)F)OC(=O)Nc1ccc(C2CCNC2)cc1 (racemic) [Example 131, (RS)-(4-Pyrrolidin-3-yl-phenyl)-carbamic acid (RS)-3,3,3-trifluoro-1-methyl-propyl ester] | 0.0208 |
|  | ~0.7 | ~2.3 | CCN(C[C@H]1COC(N)=N1)c1ccccc1 [^3[H]—(S)-4-[(ethyl-phenyl-amino)-methyl]-4,5-dihydro-oxazol-2-ylamine, reference compound] |  |

| SMILES | Ki (rat TAAR1) [µM] | Kd (mouse TAAR1; mouse TAAR1 membranes, saturation curve, read-out: dissociation constant (Kd) of the radioligand) [nM] | Kd (rat TAAR1; rat TAAR1 membranes, saturation curve, read-out: dissociation constant (Kd) of the radioligand) [nM] | Ki (mouse TAAR1) [µM] |
| --- | --- | --- | --- | --- |
| O=C(Nc1cccc(OC2CCNC2)c1)c1ccc(Cl)cc1 (racemic) [Example 70, (RS)-4-Chloro-N-[3-(pyrrolidin-3-yloxy)-phenyl]-benzamide] | 0.0935 |  |  | 0.0097 |
